Assays:
β-adrenergic receptor = test: Sympathetic stimulation of beating rate with isoproterenol; format: cell-based, rat; details: 1 μM isoproterenol
Method: (§1) Seeded cardiomyocytes in Tyrode's solution were loaded with Ca^2+ indicators (10 μM Fluo-3/AM for cardiomyocytes; Calbiochem, San Diego, CA, USA) and incubated at room temperature for 30 minutes in the dark. Fluorescence imaging was performed with a laser scanning confocal microscope (Olympus IX71, Olympus America). The fluorescence density (F) was normalized against the baseline fluorescence (F0) to determine the transient [Ca^2+]i changes, which had excluded variations in the fluorescence intensity because of different volumes of injected dye. Offline analysis was performed using Olympus IX71 and ImageJ.
Isoproterenol is a non-selective β-adrenergic receptor agonist, which is used for pharmacological sympathetic stimulation to evaluate the physiological sympathetic regulation of sinus node. In this example, the functional regulations of autonomic neurotransmitters in SF-treated cardiomyocytes were investigated using the isoproterenol treatment (1 μM).

HCN4 = molecular target: T1, HCN4 (Rattus norvegicus, UniProt Q9JKA7); test: Effect of HCN4 inhibitor on spontaneous beating rate (calcium transient cycling); format: cell-based; details: 3 μM ivabradine
T1 construct: endogenous in cells; host or cells: NRVMs (primary neonatal rat ventricular cardiomyocytes) on silk fibroin film or fibronectin control
T1 sequence (Q9JKA7 1-1198): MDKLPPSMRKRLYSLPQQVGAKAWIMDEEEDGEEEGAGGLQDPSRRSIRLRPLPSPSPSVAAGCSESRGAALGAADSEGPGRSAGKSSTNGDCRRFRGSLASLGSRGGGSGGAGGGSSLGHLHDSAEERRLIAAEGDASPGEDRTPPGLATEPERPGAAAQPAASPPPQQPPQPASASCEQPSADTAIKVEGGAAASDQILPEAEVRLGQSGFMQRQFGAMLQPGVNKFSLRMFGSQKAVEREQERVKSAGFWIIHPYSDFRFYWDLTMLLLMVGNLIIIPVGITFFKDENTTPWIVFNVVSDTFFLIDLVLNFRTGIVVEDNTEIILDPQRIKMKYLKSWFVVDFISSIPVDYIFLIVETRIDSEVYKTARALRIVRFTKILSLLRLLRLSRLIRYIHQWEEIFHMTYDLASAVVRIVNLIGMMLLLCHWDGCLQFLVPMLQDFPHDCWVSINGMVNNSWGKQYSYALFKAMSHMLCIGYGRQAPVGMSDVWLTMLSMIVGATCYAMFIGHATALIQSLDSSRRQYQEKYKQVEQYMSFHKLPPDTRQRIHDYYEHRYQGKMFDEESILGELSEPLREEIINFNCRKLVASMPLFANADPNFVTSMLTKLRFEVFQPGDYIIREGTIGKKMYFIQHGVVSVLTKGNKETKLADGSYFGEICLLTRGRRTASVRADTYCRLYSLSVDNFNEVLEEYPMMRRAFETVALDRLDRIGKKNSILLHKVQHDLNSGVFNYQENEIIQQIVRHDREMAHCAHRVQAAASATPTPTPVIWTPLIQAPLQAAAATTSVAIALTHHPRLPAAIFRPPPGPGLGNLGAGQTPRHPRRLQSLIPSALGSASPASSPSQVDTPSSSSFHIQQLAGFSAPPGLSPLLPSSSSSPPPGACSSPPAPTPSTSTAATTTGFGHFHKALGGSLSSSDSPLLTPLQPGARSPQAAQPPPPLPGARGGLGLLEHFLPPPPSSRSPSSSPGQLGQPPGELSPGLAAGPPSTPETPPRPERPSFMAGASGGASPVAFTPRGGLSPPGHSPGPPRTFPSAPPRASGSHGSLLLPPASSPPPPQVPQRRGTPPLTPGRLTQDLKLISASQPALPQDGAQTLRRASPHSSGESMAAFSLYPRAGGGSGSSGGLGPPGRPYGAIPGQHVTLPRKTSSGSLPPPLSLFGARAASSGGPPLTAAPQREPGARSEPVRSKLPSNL
Method: as §1
The spontaneous beating is tightly regulated by HCN4 channels in native SAN pacemakers. Therefore, in this example, cells from Example 1 were treated with 3 μM ivabradine, a selective HCN4 inhibitor, to evaluate the impact of HCN4 on the function of SF-treated cardiomyocytes.

suppression of beating rate (cycling rate of spontaneous calcium transient) (HCN4; SF-treated cardiomyocytes, vs baseline, n=15, P=0.002) [%] | beating rate vs baseline (HCN4; control cells, n=32, P=0.24) | Compound | beating rate (β-adrenergic receptor; SF-treated cardiomyocytes, n=10, P=0.001 vs control) [bpm] | increment of beating rate without vs with isoproterenol (β-adrenergic receptor; SF-treated cells, n=10, P=0.02 vs control) [bpm] | beating rate (β-adrenergic receptor; control cells) [bpm] | increment of beating rate without vs with isoproterenol (β-adrenergic receptor; control cells) [bpm]
– | – | CC(C)NCC(O)c1ccc(O)c(O)c1 (stereo not drawn) [isoproterenol] | 162.4±9.6 | 87.1±12.4 | 87.6±14.7 | 49.2±8.3
57 | did not differ significantly | COc1cc2c(cc1OC)CC(=O)N(CCCN(C)C[C@H]1Cc3cc(OC)c(OC)cc31)CC2 [ivabradine] | – | – | – | –
